Experimental findings from a melting point compilation (Tetko et al.; mined from patent text by program, amines drawn as free bases though some values may be those of a salt) are described below.

Usually melting point stands for the temperature, or range, at which the solid turns liquid. The molecule `O=C(O)c1ccc2c(c1)S(=O)(=O)c1ccc([N+](=O)[O-])cc1C2=O` showed a melting point of over 360 °C.

Consider `O=S(=O)(NCCN1CC(c2ccccc2)C(c2ccc(Cl)cc2)=N1)c1cccc(C(F)(F)F)c1` (stereo not drawn), for which the melting point is 94 to 96 °C.

Consider `CCCN(c1ccncc1)n1cc(C)c2cc(OCc3ccccc3)ccc21`, for which the melting point lay in the range of 165 to 167 °C.

The molecule `CC(=O)N1CC(C)(C)c2cc3nc(-c4ccnnc4)[nH]c3cc21` had a melting point of 225 to 260 °C.

Consider `CSc1n[nH]c(NC(=O)c2ccccc2O)n1`, for which the melting point is 306 to 309 °C.

As for `Cn1cccc1-c1nc2cc(Cl)cc(CCc3ccccn3)c2o1`, the melting point was in the range of 100 to 101 °C.

With `CC(C)(C)OC(=O)[C@H]1CC[C@@H](c2ccccc2)N1C(=O)CNC(=O)Nc1cccc(C(=O)OCc2ccccc2)c1` (racemic), the melting point is 75 °C.

For `N#CSCSc1sccc1[N+](=O)[O-]`, the melting point is 51 to 53 °C.

`CCOC(=O)c1ccc(-c2cnc(-c3ccc(C(F)(F)F)cc3)s2)cc1` yielded a melting point of 174 to 176 °C.

In turn, `COc1ccc(NC(=O)Nc2ccccc2)cc1NC(=S)Nc1cc(Cl)cc(Cl)c1` returned a melting point of 218 to 219 °C.

`Oc1ccc2c(c1)Oc1cc(O)ccc1C2(C(F)(F)F)C(F)(F)F` yielded a melting point of 209 to 210 °C.

`CCCN1C(=O)C(NC(=O)Nc2cccc(C)c2)N=C(N(C)C2CCCCC2)c2ccccc21` (single isomer, unassigned; (+)): the melting point was 126 to 127 °C.

For `O=C(CC1CCN(Cc2ccccc2)CC1)Nc1noc(C2CN3CCC2CC3)n1` (stereo not drawn), the melting point was in the range of 133 to 134 °C.

`CCOC(=O)c1cn(CC)c2cc(C3CCCCC3)c(OC)cc2c1=O` had a melting point of 154 to 156 °C.

Molecule `CC(=O)Nc1cccc(-c2ccnc3c(Cc4ccccc4)cnn23)c1` displayed a melting point of 205 to 207 °C.

Molecule `Fc1nc(F)c(F)c(N2CCCNCC2)c1F` came in with a melting point of 58 to 61 °C.

`CCCCN(CCCC)c1nc(-c2ccc(C(C)(C)C)cc2)cs1`: the melting point lay within 48.5 to 49.5 °C.

Regarding `COc1cc2cc(C(=O)O)[nH]c2c2c1OCCC2=O`, the melting point is 312 °C.

Molecule `Cc1ccc(-c2nc3ccc(N(C)C)cn3c2CN(C)C(=O)CC(C)C)cc1` showed a melting point of 200 to 202 °C.

The molecule `CCOc1ccc2c(c1)C(c1ccccc1Cl)C(=O)N2` (stereo not drawn) came in with a melting point of 176 to 180 °C.

As for `O=C(O)c1cn(C2CC2)c2cc(N3CCC(c4cccnc4)C3)c(F)cc2c1=O` (stereo not drawn), the melting point was 233 to 236 °C.

Regarding `COCCONC(=O)c1nc(-c2ccc(Cl)c(OC)c2F)cc(N)c1Cl`, the melting point lay within 155 to 157 °C.

On to `C[C@@H]1N(C(=O)OC(C)(C)C)CC[C@]1(C)O`, for which the melting point lay in the range of 109 to 112 °C.

`O=C1C=CC=C2C=CC=C12` yielded a melting point of 70 to 71 °C.

`O=C(SCC(Cc1ccccc1)C(=O)O)c1ccccc1` (stereo not drawn) displayed a melting point of 99 to 100 °C.

As to `CC(C)(C)OC(=O)Nc1ccc(-c2ccc(F)cc2)cc1NC(=O)CC(=O)c1sccc1Cl`, the melting point is 168 to 169 °C.

As to `O=C(O)c1ccc(COCc2csc3nc(C(=O)NCc4cccc(OC(F)(F)F)c4)[nH]c(=O)c23)cc1`, the melting point lay within 248 to 250 °C.

In turn, `CN(C)CCC(O)c1ccccc1` (stereo not drawn) had a melting point of 45 to 46 °C.

In turn, `CN(O)C(=O)c1ccc(CCCNc2ccc(O)cc2)cc1` returned a melting point of 152 to 153 °C.

On to `COc1ccc(C2=NN(c3ccc(Cl)cc3)C(=O)[C@H]3CC=CC[C@@H]23)cc1OC` (relative stereo), for which the melting point is 140 to 141 °C.

Take `COC(=O)CCCCNC(=O)[C@H](Cc1ccccc1)NC(=O)OC(C)(C)C`: the melting point was 98 to 100 °C.

With `Clc1ccc2c(c1)C(c1ccccc1)=NCc1nnc(Br)n1-2`, the melting point was found to be 206 °C.

For the molecule `O=C1Cc2ccccc2Sc2cc(C(F)(F)F)c(Cl)cc21`, the melting point lay in the range of 123 to 124 °C.

Regarding `CC(O)C1CCC(CNC(=O)OCc2ccccc2)CC1` (stereo not drawn), the melting point is 83 to 84 °C.

`CCOC(=O)C1=CCCCC1S(=O)(=O)Nn1cccc1` (stereo not drawn) came in with a melting point of 85 to 86 °C.

`CC1=NN=C(c2ccc([N+](=O)[O-])cc2)c2cc(Cl)ccc2C1` had a melting point of 199 to 203 °C.

For `CCc1c(C)cc(C#N)c(N)c1C#N`, the melting point was in the range of 121 to 123 °C.

In turn, `CCOc1nc2cccc(C(=O)O)c2n1Cc1ccc(-c2ccccc2-c2nnnn2C(c2ccccc2)(c2ccccc2)c2ccccc2)cc1` came in with a melting point of 168 to 170 °C.

Molecule `O=C1CCCN1[C@@H]1c2cc(Cl)ccc2OCC[C@H]1O` (relative stereo) registered a melting point of 186 to 188 °C.

Molecule `Cc1nc2c(O)c(CC[C@@H](O)c3ccc(F)cc3)c(C(=O)N(C)C)cc2n1C` had a melting point of 276 to 277 °C.

For `CCOC(=O)COc1ccc(NC(=O)OCc2ccccc2)cc1`, the melting point is 85 to 86 °C.

Take `CCOC(=O)C=Cc1ccc(CCc2nc(-c3ccccc3)c(C)s2)cc1`: the melting point is 69 to 70 °C.

`CCCCOC(=O)[C@H]1CN(c2cc(F)c(N3CCOCC3)c(F)c2)C(=O)O1` displayed a melting point of 99 to 100 °C.

As for `CCCCCCCNC(=S)N(C)c1cccc(-c2ccc(CCC(=O)O)cc2)c1`, the melting point lay in the range of 95 to 96 °C.

Molecule `O=C(O)c1ccccc1C(=O)NCCCCc1cccnc1` displayed a melting point of 132 to 135 °C.

`C[C@H](NC1=NC=NC(N)(Cl)N1)c1ccccc1` (stereo partly drawn) returned a melting point of 163 to 164 °C.

The molecule `Cc1cc(Oc2ccc(Cc3ccccc3)cc2)cc(C)c1N` registered a melting point of 61 to 63 °C.

`Cc1c(C)c(NC(=O)CC(C)(C)C)c2c(c1C)C(c1ccc(C(C)C)cc1)C(C)(C)O2` (stereo not drawn): the melting point lay in the range of 152 to 153 °C.

Molecule `NC1=NC2(CN(C(=O)c3cccs3)C2)Nc2cccc(F)c21` displayed a melting point of 214 to 215 °C.

For the molecule `O=C(c1ccc(Cl)cc1)c1c(N2C(=O)c3ccccc3C2=O)sc(-c2ccccc2)c1CN1CCCCC1`, the melting point fell in the range of 187 to 189 °C.

With `CC(C)(C)C(NC(=O)c1ccc(I)cc1)NC(=NC#N)Nc1cccnc1` (stereo not drawn), the melting point lay in the range of 180 to 183 °C.

In the case of `NC1=NS(=O)N=C1NCCCOc1cccc2c(=O)[nH]ccc12` (stereo not drawn), the melting point was found to be 235 °C.

In turn, `OCC1OC(n2c(Cl)nc3c(Br)c(Br)c(Br)cc32)C(O)C1O` (stereo not drawn) returned a melting point of 168 to 170 °C.

On to `CCONC(=O)c1ccc(-c2cccc(CN(C)Cc3ccccc3)c2)cn1`, for which the melting point was 85 to 90 °C.

In the case of `CN1Cc2ccccc2C(Oc2ccc([N+](=O)[O-])cc2)C1` (stereo not drawn), the melting point lay within 142 to 143 °C.

Regarding `CC(=O)Nc1ccc(NC(=O)c2ccc(O)cc2)cc1`, the melting point came to 160 °C.

The molecule `CCCCc1cn(CCCC)c(=O)n1Cc1ccc(-c2cnccc2-c2nnn[nH]2)cc1` registered a melting point of 128 to 130 °C.

Molecule `CCCCOc1ncc(I)cc1C(N)=S` showed a melting point of 140 to 148 °C.

For `CSc1ccc2cc[nH]c2c1`, the melting point was in the range of 91 to 92 °C.

Consider `COc1ccc2c(=O)c(-c3ccc(C)cc3)c(SCc3ccncc3)oc2c1`, for which the melting point lay within 157 to 160 °C.

Molecule `COC(=O)Nc1cc(-c2nc(-c3ccco3)no2)ccc1Cl` returned a melting point of 200 to 201 °C.

Take `CCCc1nn(C)c2c(=O)n(CCOc3ccc(SC(C)(C)C(=O)OCC)cc3)c(C)nc12`: the melting point was in the range of 106 to 108 °C.

For `CCCCn1ccc2cc(-c3ccc(C(F)(F)F)cc3)ccc21`, the melting point fell in the range of 52 to 53 °C.

The molecule `Oc1nc2cc(F)c(F)cc2nc1O` yielded a melting point of over 310 °C.

For `COc1cc(N2CCC(N3CCN(C)CC3)CC2)ccc1Nc1ncc2ccc(Br)n2n1`, the melting point fell in the range of 171 to 173 °C.

`Cc1ccc(-c2cncc(OC3SCC(O)C(O)C3O)c2)o1` (stereo not drawn) showed a melting point of 188 °C.

For `C=CCOc1ccccc1OCC=Cc1ccc(OC)c(OC)c1`, the melting point was in the range of 60 to 60.5 °C.

For the molecule `C#CC1(Oc2ccc(F)cc2[N+](=O)[O-])CCN(C)CC1`, the melting point lay in the range of 70 to 73 °C.

`CC(c1ccc(-c2ccccc2)c(F)c1)c1cc(N)on1` (stereo not drawn) yielded a melting point of 122 to 123 °C.

Molecule `CC(C)(C)OC(=O)NCc1cccc(C2CCNCC2)c1` returned a melting point of 79 to 84 °C.

For `Nc1nc2ccccc2c2c1ncn2CCCCNC(=O)c1ccccc1`, the melting point was 210 to 212 °C.

For `CC(=O)c1ccc2c(c1)c1ccccc1n2CCCCl`, the melting point lay within 109 to 111 °C.

On to `COc1cc(OC)c(C(C)=O)c(O)c1C`, for which the melting point lay within 143 to 144 °C.

The molecule `NC(=O)c1ccc(CCN2CCC(=C3c4ccsc4CCn4ccnc43)CC2)cc1` registered a melting point of 196 °C.

For the molecule `COc1ccc(C2CCCCC2)cc1-c1csc(NC(=O)C2CCN(C(=O)OC(C)(C)C)CC2)n1`, the melting point was 193 °C.

For `Cc1c(C)c2c(c(C)c1NC(=O)CC(C)(C)C)C(c1cccc(C3OCCO3)c1)CO2` (stereo not drawn), the melting point lay within 168 to 169 °C.

For the molecule `CS(=O)(=O)c1ccc(CC(=O)c2ccc(F)cc2)cc1`, the melting point lay in the range of 182 to 183 °C.

For the molecule `COc1ccc2c(c1)c(C1CCN(CCOc3ccccc3C(=O)O)CC1)cn2Cc1ccoc1`, the melting point was in the range of 153 to 154 °C.

Molecule `CC(=O)Nc1ccc(-c2nc(=O)c3ccccc3s2)cc1` showed a melting point of 231 to 232 °C.

As for `O=C(CCCCCCCCCCBr)Nc1ccc(O)cc1`, the melting point lay within 116 to 117 °C.

As for `CCCCN(CC1Cc2cc(Cl)cc(Cl)c2O1)C(=O)n1cncn1` (stereo not drawn), the melting point lay within 122 to 124 °C.

For `CCCCCCCCCCCC(=O)Nc1ccc(NC(=O)CCNC(=O)C2OC(C)(C)OCC2(C)C)cc1` (stereo not drawn), the melting point is 144 to 145 °C.

`Fc1ccc(-c2nc(=S)n(Cc3ccccc3)[nH]2)c(Cl)c1` showed a melting point of 135 to 136 °C.

Consider `Cc1ccc(N2C(=O)C(O)=C(C(=O)c3ccc(OC(F)(F)F)cc3)C2c2ccc(Cn3ccnn3)cc2)nn1` (stereo not drawn), for which the melting point is 275 °C.

Molecule `CC(C#Cc1cccc(C=Cc2ccccn2)c1)N(O)C(N)=O` (stereo not drawn) returned a melting point of 122 to 126 °C.

Consider `CCCc1nc2c(ccc3[nH]c4cnc(C(=O)OC(C)C)c(C)c4c32)o1`, for which the melting point fell in the range of 223 to 224 °C.

As for `COc1ncccc1-c1ccc(Cl)c(OC2SCC(O)C(O)C2O)c1` (stereo not drawn), the melting point stood at 119 °C.

`CC(=O)Nc1ccc2c(c1)N1CCCN=C1S2` showed a melting point of 178 °C.
